The assay has as its system Aβ40 in conditioned medium of cells stably expressing Amyloid Precursor Protein (APP). Briefly: BACE cell-based assay: Aβ40 in conditioned medium by sandwich ELISA. The following applies: read-out: Cell Assay. The method, then:
The cell-based assay measures inhibition or reduction of Aβ40 in conditioned medium of test compound treated cells expressing amyloid precursor protein.
Cells stably expressing Amyloid Precursor Protein (APP) were plated at a density of 40K cells/well in 96 well plates (Costar). The cells were cultivated for 24 hours at 37° C. and 5% CO2 in DMEM supplemented with 10% FBS. The test compounds were then added to cells in 10-point dose response concentrations with the starting concentration being either 100 μM or 10 μM. The compounds were diluted from stock solutions in DMSO and the final DMSO concentration of the test compounds on cells was 0.1%. After 24 h of incubation with the test compounds the supernatant conditioned media was collected and the Aβ40 levels were determined using a sandwich ELISA. The ICso of the compound was calculated from the percent of control or percent inhibition of Aβ40 as a function of the concentration of the test compound.
The sandwich ELISA to detect Aβ40 was performed in 96 well microtiter plates, which were pre-treated with goat anti-rabbit IgG (Pierce). The capture and detecting antibody pair that were used to detect Aβ40 from cell supernatants were affinity purified pAb40 (Biosource) and biotinylated 6E10 (Signet Labs Inc.), respectively. The optimal concentration for the pAb40 antibody was 3 μg/ml in Superblock/TBS (Pierce) that was supplemented with 0.05% Tween 20 (Sigma).
Cellular supernatants were incubated with the capture antibody for 3 h at 4° C., followed by 3 wash steps in TBS-tween (0.05%). The detecting antibody incubation was for 2 h at 4° C., again followed by the wash steps as described previously. The final readout of the ELISA is Time-Resolved Fluorescence (counts per minute) using Delfia reagents Streptavidin-Europium and Enhancement solutions (Perkin Elmer) and the Victor 2 multilabel counter (Perkin Elmer).

Setting [1] is: cell based assay data of Table 4, unit inferred.

Like-named read-outs stand apart in the source and are kept apart here.

As to `CC(=O)N[C@@H](Cc1ccc(F)cc1)[C@H](O)CN[C@H]1CC2(CCC2)Oc2c1cc(CC(C)(C)C)nc2OC(C)C` [compound 608, N-((1S,2R)-3-(((4′S)-6′-(2,2-dimethylpropyl)-8′-((1-methylethyl)oxy)-3′,4′-dihydrospiro[cyclobutane-1,2′-pyrano[2,3-c]pyridin]-4′-yl)amino)-1-((4-fluorophenyl)methyl)-2-hydroxypropyl)acetamide], the IC50 under setting [1] was found to be 64.3 nM.
As to `CC(=O)N[C@@H](Cc1cccc(F)c1)[C@H](O)CN[C@@H]1CC2(CCC2)Oc2c1cc(CC(C)(C)C)nc2OC(C)C` [compound 609], the IC50 under setting [1] came out at 66.7 nM.
On the same count and under the same terms, for `CC(=O)N[C@@H](Cc1cc(F)cc(F)c1)[C@H](O)CN[C@@H]1CC2(CCC2)Oc2c1cc(CC(C)(C)C)nc2OC(C)C` [compound 611] the value was 161 nM.
Still for that read-out and setting: for `CC(=O)N[C@@H](Cc1cc(F)cc(F)c1)[C@H](O)CN[C@H]1CC2(CCC2)Oc2c1cc(CC(C)(C)C)nc2OC(C)C` [compound 612, N-((1S,2R)-1-((3,5-difluorophenyl)methyl)-3-(((4′S)-6′-(2,2-dimethylpropyl)-8′-((1-methylethyl)oxy)-3′,4′-dihydrospiro[cyclobutane-1,2′-pyrano[2,3-c]pyridin]-4′-yl)amino)-2-hydroxypropyl)acetamide] the value was 24.2 nM.
Same read-out and setting: for `COc1nc(CC(C)(C)C)cc2c1OC1(CCC1)C[C@@H]2NC[C@@H](O)[C@H](Cc1ccc(F)cc1)NC(C)=O` [compound 613] the value was 103 nM.
With `COC1CN(c2nc(CC(C)(C)C)cc3c2OC2(CCC2)C[C@@H]3NC[C@@H](O)[C@H](Cc2ccc(F)cc2)NC(C)=O)C1` [compound 614], the IC50 under setting [1] stood at 59 nM.
In the case of `CC(=O)N[C@@H](Cc1ccc(F)cc1)[C@H](O)CN[C@H]1C[C@]2(C[C@H](C)C2)Oc2ncc(CC(C)C)cc21` [compound 615, N-((1S,2R)-1-((4-fluorophenyl)methyl)-2-hydroxy-3-(((1s,3R,4′S)-3-methyl-6′-(2-methylpropyl)-3′,4′-dihydrospiro[cyclobutane-1,2′-pyrano[2,3-b]pyridin]-4′-yl)amino)propyl)acetamide], the IC50 under setting [1] is 24.8 nM.
Same read-out and setting: for `CC(=O)N[C@@H](Cc1ccc(F)cc1)[C@H](O)CN[C@H]1C[C@]2(C[C@@H](C)C2)Oc2ncc(CC(C)C)cc21` [compound 616, N-((1S,2R)-1-((4-fluorophenyl)methyl)-2-hydroxy-3-(((1r,3S,4′S)-3-methyl-6′-(2-methylpropyl)-3′,4′-dihydrospiro[cyclobutane-1,2′-pyrano[2,3-b]pyridin]-4′-yl)amino)propyl)acetamide] the value was 62.7 nM.
The same measure, in the same setting: for `CC(=O)N[C@@H](Cc1cccc(F)c1)[C@H](O)CN[C@H]1C[C@]2(C[C@H](C)C2)Oc2ncc(CC(C)C)cc21` [compound 617, N-((1S,2R)-1-((3-fluorophenyl)methyl)-2-hydroxy-3-(((1s,3R,4′S)-3-methyl-6′-(2-methylpropyl)-3′,4′-dihydrospiro[cyclobutane-1,2′-pyrano[2,3-b]pyridin]-4′-yl)amino)propyl)acetamide] the value was 2.98 nM; for `CC(=O)N[C@@H](Cc1ccc(Cl)cc1)[C@H](O)CN[C@H]1C[C@]2(C[C@H](C)C2)Oc2ncc(CC(C)C)cc21` [compound 618, N-((1S,2R)-1-((4-chlorophenyl)methyl)-2-hydroxy-3-(((1s,3R,4′S)-3-methyl-6′-(2-methylpropyl)-3′,4′-dihydrospiro[cyclobutane-1,2′-pyrano[2,3-b]pyridin]-4′-yl)amino)propyl)acetamide], 72.2 nM; for `CC(=O)N[C@@H](Cc1ccc(F)cc1)[C@H](O)CN[C@H]1C[C@]2(CC[C@@H]2C)Oc2ncc(CC(C)(C)C)cc21` [compound 619], 32.6 nM.
The same measure, in the same setting: for `CC(=O)N[C@@H](Cc1ccc(Cl)cc1)[C@H](O)CN[C@H]1C[C@]2(CC[C@@H]2C)Oc2ncc(CC(C)(C)C)cc21` [compound 620] the value was 62 nM; for `CC(=O)N[C@@H](Cc1ccc(F)cc1)[C@H](O)CN[C@H]1C[C@@]2(CC[C@H]2C)Oc2ncc(CC(C)(C)C)cc21` [compound 621], at least 10000 nM; for `CC(=O)N[C@@H](Cc1ccc(Cl)cc1)[C@H](O)CN[C@H]1C[C@@]2(CC[C@H]2C)Oc2ncc(CC(C)(C)C)cc21` [compound 622], at least 10000 nM.
As to `CC(=O)N[C@@H](Cc1ccc(F)cc1)[C@H](O)CN[C@H]1C[C@]2(CC[C@H]2C)Oc2ncc(CC(C)(C)C)cc21` [compound 623], the IC50 under setting [1] is 38.2 nM.
Still for that read-out and setting: for `CC(=O)N[C@@H](Cc1ccc(Cl)cc1)[C@H](O)CN[C@H]1C[C@]2(CC[C@H]2C)Oc2ncc(CC(C)(C)C)cc21` [compound 624] the value was 61.5 nM; for `CC(=O)N[C@@H](Cc1ccc(F)cc1)[C@H](O)CN[C@H]1C[C@@]2(CC[C@@H]2C)Oc2ncc(CC(C)(C)C)cc21` [compound 625], at least 10000 nM; for `CC(=O)N[C@@H](Cc1ccc(Cl)cc1)[C@H](O)CN[C@H]1C[C@@]2(CC[C@@H]2C)Oc2ncc(CC(C)(C)C)cc21` [compound 626], at least 10000 nM.
Turning to `COC(=O)N[C@@H](Cc1ccc(Cl)cc1)[C@H](O)CN[C@H]1CC2(CCC2)Oc2ncc(CC(C)(C)C)cc21` [compound 627], the IC50 under setting [1] was determined as 936 nM.
The same measure, in the same setting: for `COCC(=O)N[C@@H](Cc1ccc(F)cc1)[C@H](O)CN[C@H]1CC2(CCC2)Oc2ncc(CC(C)(C)C)cc21` [compound 628] the value was 10.5 nM.
As to `CC(C)(C)Cc1cnc2c(c1)[C@@H](NC[C@@H](O)[C@H](Cc1ccc(F)cc1)NC(=O)CF)CC1(CCC1)O2` [compound 629], the IC50 is 12.6 nM.
Regarding `CC(C)(C)Cc1cnc2c(c1)[C@@H](NC[C@@H](O)[C@H](Cc1ccc(F)cc1)NC(=O)C(F)F)CC1(CCC1)O2` [compound 630], the IC50 under setting [1] worked out at 36.4 nM.
As for `CC(C)(C)Cc1cnc2c(c1)[C@@H](NC[C@@H](O)[C@H](Cc1ccc(F)cc1)NC(=O)C(F)(F)F)CC1(CCC1)O2` [compound 631], the IC50 under setting [1] was found to be 57 nM.
Still for that read-out and setting: for `CC(C)(C)Cc1cnc2c(c1)[C@@H](NC[C@@H](O)[C@H](Cc1ccc(F)cc1)NC(=O)CC(F)(F)F)CC1(CCC1)O2` [compound 632] the value was 308 nM; for `COCCC(=O)N[C@@H](Cc1ccc(F)cc1)[C@H](O)CN[C@H]1CC2(CCC2)Oc2ncc(CC(C)(C)C)cc21` [compound 633], 17.1 nM; for `CC(=O)N[C@@H](Cc1cscn1)[C@H](O)CN[C@H]1CC2(CCC2)Oc2ncc(CC(C)(C)C)cc21` [compound 634, N-((1S,2R)-3-(((4′S)-6′-(2,2-dimethylpropyl)-3′,4′-dihydrospiro[cyclobutane-1,2′-pyrano[2,3-b]pyridin]-4′-yl)amino)-2-hydroxy-1-(1,3-thiazol-4-ylmethyl)propyl)acetamide], 14.2 nM.
On the same count and under the same terms, for `CC(=O)N[C@@H](Cc1ccncc1)[C@H](O)CN[C@H]1CC2(CCC2)Oc2ncc(CC(C)(C)C)cc21` [compound 635, N-((1S,2R)-3-(((4′S)-6′-(2,2-dimethylpropyl)-3′,4′-dihydrospiro[cyclobutane-1,2′-pyrano[2,3-b]pyridin]-4′-yl)amino)-2-hydroxy-1-(4-pyridinylmethyl)propyl)acetamide] the value was 3.04 nM.

Values taken from patent US7973047B2, “Beta-Secretase modulators and methods of use” (Amgen Inc., priority 2010, dated 2011).
